Assay results: patent US6537948B1, “Uracil compounds and use thereof” (Sumitomo Chemical Company, Limited, priority 2000, dated 2003)

Tests used:
[1] = test system: common cocklebur (Xanthium pensylvanicum); test: Test Example 3: foliar treatment of field; assay type: in vivo; conditions: foliar spray, dosage 16 g/ha, 25 days after application
Procedure: (§1) A plastic pot having longer side of 27 cm, shorter side of 20 cm and depth of 7.5 cm was filled with soil and then seeded with ivyleaf morningglory (Ipomoea hederacea) and common cocklebur (Xanthium pensylvanicum). These test plants were grown in a greenhouse for 10 days. Then, therein, transplanted were common lambsquarters (Chenopodium album), redroot pigweed and giant foxtail (Setaria faberi) which had been seeded and grown for 14 days in a green house in advance. The test plants were further grown in the greenhouse for 8 days. After then, present compound 1-12 was formulated into an emulsifiable concentrate according to Formulation Example 2 and then diluted to the prescribed amount with water containing a spreading agent and the dilution was uniformly sprayed over the foliage of the test plants with a sprayer at a rate of 1000 liters per hectare. After the application, the test plants were grown in the greenhouse for 25 days, and the herbicidal activity was examined.

[2] = test system: common lambsquarters (Chenopodium album); test: Test Example 3: foliar treatment of field; assay type: in vivo; conditions: foliar spray, dosage 16 g/ha, 25 days after application
Procedure: as §1

[3] = test system: giant foxtail (Setaria faberi); test: Test Example 3: foliar treatment of field; assay type: in vivo; conditions: foliar spray, dosage 16 g/ha, 25 days after application
Procedure: as §1

[4] = test system: ivyleaf morningglory (Ipomoea hederacea); test: Test Example 3: foliar treatment of field; assay type: in vivo; conditions: foliar spray, dosage 16 g/ha, 25 days after application
Procedure: as §1

redroot pigweed = test: Test Example 3: foliar treatment of field; assay type: in vivo, Amaranthus retroflexus; conditions: foliar spray, dosage 16 g/ha, 25 days after application
Procedure: as §1

[5] = test system: black nightshade (Solanum nigrum); test: Test Example 4: soil surface treatment of field; assay type: in vivo; conditions: soil surface spray, dosage 250 g/ha, 25 days after application
From the text: (§2) A plastic pot having longer side of 32 cm, shorter side of 22 cm and depth of 8 cm was filled with soil and then seeded with hemp sesbania (Sesbania exaltata), black nightshade (Solanum nigrum), velvetleaf (Abutilon theophrasti), pale smartweed (Polygonum lapathifolium), common lambsquarters (Chenopodium album) and giant foxtail (Setaria faberi). Then, the present compound 1-12 was formulated into an emulsifiable concentrate according to Formulation Example 2 and then diluted to the prescribed amount with water, and the dilution was uniformly sprayed over the surface of the soil with a sprayer at a rate of 1000 liters per hectare. After the application, the test plants were grown in the greenhouse for 25 days, and the herbicidal activity was examined.

[6] = test system: common lambsquarters (Chenopodium album); test: Test Example 4: soil surface treatment of field; assay type: in vivo; conditions: soil surface spray, dosage 250 g/ha, 25 days after application
From the text: as §2

[7] = test system: giant foxtail (Setaria faberi); test: Test Example 4: soil surface treatment of field; assay type: in vivo; conditions: soil surface spray, dosage 250 g/ha, 25 days after application
From the text: as §2

[8] = test system: hemp sesbania (Sesbania exaltata); test: Test Example 4: soil surface treatment of field; assay type: in vivo; conditions: soil surface spray, dosage 250 g/ha, 25 days after application
From the text: as §2

[9] = test system: pale smartweed (Polygonum lapathifolium); test: Test Example 4: soil surface treatment of field; assay type: in vivo; conditions: soil surface spray, dosage 250 g/ha, 25 days after application
From the text: as §2

[10] = test system: velvetleaf (Abutilon theophrasti); test: Test Example 4: soil surface treatment of field; assay type: in vivo; conditions: soil surface spray, dosage 250 g/ha, 25 days after application
From the text: as §2

[11] = test system: giant foxtail (Setaria faberi); test: Test Example 8: foliar spray, herbicidal activity index; assay type: in vivo; parameters: key: “0” means that there was no or little difference in the degree of germination or growth between the treated and the untreated tested plants at the time of examination; “10” means that the test plants died complete or their germination or growth was completely inhibited; conditions: foliar spray 373 liters per hectare, examined after 4 days, index 0-10
Procedure: (§3) A plastic pot having longer side of 16.5 cm, shorter side of 12 cm and depth of 7 cm was filled with soil and then seeded with large crabgrass (Digitaria sanguinalis), giant foxtail (Setaria faberi) and johnsongrass (Sorghum halepense). These test plants were grown in a greenhouse for 25 days. Then, each of the present compound 2-52 and C was formulated into an emulsifiable concentrate according to Formulation Example 2 and then diluted to the prescribed amount with water containing a spreading agent and the dilution was uniformly sprayed over the foliage of the test plants with a sprayer at a rate of 373 liters per hectare. After the application, the test plants were grown in the greenhouse for 4 days, and the herbicidal activity was examined. (In the Table 14, the test plants are shown as follows.
(§4) Large crabgrass: LC, Giant foxtail: GF, Johnsongrass: J

[12] = test system: johnsongrass (Sorghum halepense); test: as above; assay type: in vivo; parameters: key: “0” means that there was no or little difference in the degree of germination or growth between the treated and the untreated tested plants at the time of examination; “10” means that the test plants died complete or their germination or growth was completely inhibited; conditions: foliar spray 373 liters per hectare, examined after 4 days, index 0-10
Procedure: as §3, §4

[13] = test system: large crabgrass (Digitaria sanguinalis); test: as above; assay type: in vivo; parameters: key: “0” means that there was no or little difference in the degree of germination or growth between the treated and the untreated tested plants at the time of examination; “10” means that the test plants died complete or their germination or growth was completely inhibited; conditions: foliar spray 373 liters per hectare, examined after 4 days, index 0-10
Procedure: as §3, §4

[14] = test system: barnyardgrass (Echinochloa crus-galli); test: Test Example 7: foliar spray, herbicidal activity index; assay type: in vivo; conditions: 4 days after application, index 0-10
Procedure: (§5) A plastic pot having longer side of 27 cm, shorter side of 19 cm and depth of 7 cm was filled with soil and then seeded with large crabgrass (Digitaria sanguinalis) and giant foxtail (Setaria faberi). Nine days after, barnyardgrass (Echinochloa crus-galli) was seeded therein and grown for 15 days in a greenhouse. Further, a plastic pot having longer side of 16.5 cm, shorter side of 12 cm and depth of 7 cm was filled with soil and then seeded with wild oat (Avena fatua), and grown for 18 days in a greenhouse. Then, each of the present compound 1-45 and B was formulated into an emulsifiable concentrate according to Formulation Example 2 and then diluted to the prescribed amount with water containing a spreading agent and the dilution was uniformly sprayed over the foliage of the test plants with a sprayer at a rate of 1000 liters per hectare. After the application, the test plants were grown in the greenhouse for 4 days, and the herbicidal activity was examined. (In the Table 13, the test plants are shown as follows.
(§6) Barnyardgrass: B, Large crabgrass: LC, Giant foxtail: GF, Wild oat: W

[15] = test system: giant foxtail (Setaria faberi); test: as above; assay type: in vivo; conditions: 4 days after application, index 0-10
Procedure: as §5, §6

[16] = test system: large crabgrass (Digitaria sanguinalis); test: as above; assay type: in vivo; conditions: 4 days after application, index 0-10
Procedure: as §5, §6

wild oat (Avena fatua) = test: as above; assay type: in vivo; conditions: 4 days after application, index 0-10
Procedure: as §5, §6

`COC(=O)C(C)Oc1cnc(Oc2cc(-n3c(=O)cc(C(F)(F)F)n(C)c3=O)c(F)cc2Cl)nc1` (stereo not shown) [Compound 1-12, methyl 2-([2-{2-chloro-4-fluoro-5-[3-methyl-2,6-dioxo-4-(trifluoromethyl)-1,2,3,6-tetrahydropyrimidin-1-yl]phenoxy}pyrimidin-5-yl]oxy)propionate] was tested, and the “growth of common cocklebur (herbicidal activity)” value [1] was “completely controlled”, the “growth of common lambsquarters (herbicidal activity)” value [2] was “completely controlled” and the “growth of giant foxtail (herbicidal activity)” value [3] was “completely controlled”. The “growth of ivyleaf morningglory (herbicidal activity)” value [4] was “completely controlled”, the “growth of redroot pigweed (herbicidal activity)” value (redroot pigweed) was “completely controlled” and the “growth of black nightshade (herbicidal activity)” value [5] was “completely controlled”. For the same molecule, the “growth of common lambsquarters (herbicidal activity)” value [6] was “completely controlled”, the “growth of giant foxtail (herbicidal activity)” value [7] was “completely controlled” and the “growth of hemp sesbania (herbicidal activity)” value [8] was “completely controlled”. The “growth of pale smartweed (herbicidal activity)” value [9] was “completely controlled” and the “growth of velvetleaf (herbicidal activity)” value [10] was “completely controlled”.
With `CC(=O)Nc1cccnc1Oc1cc(-n2c(=O)cc(C(F)(F)F)n(N)c2=O)c(F)cc1Cl` [C, reference compound] the “Herbicidal activity GF” value ([11]; dosage 32 g/ha) was 6, the “Herbicidal activity GF” value ([11]; dosage 125 g/ha) was 9 and the “Herbicidal activity J” value ([12]; dosage 32 g/ha) was 8. The “Herbicidal activity J” value ([12]; dosage 125 g/ha) was 10, the “Herbicidal activity LC” value ([13]; dosage 32 g/ha) was 7 and the “Herbicidal activity LC” value ([13]; dosage 125 g/ha) was 9.
`COC(=O)C(C)Nc1cccnc1Oc1cc(-n2c(=O)cc(C(F)(F)F)n(C)c2=O)c(F)cc1Cl` (stereo not shown) [Compound 2-52, 2-{2-chloro-4-fluoro-5-[3-methyl-2,6-dioxo-4-(trifluoromethyl)-1,2,3,6-tetrahydropyrimidin-1-yl]phenoxy}-3-{1-(methoxycarbonyl)ethylamino}pyridine] was tested, and the “Herbicidal activity GF” value ([11]; dosage 32 g/ha) was 9, the “Herbicidal activity GF” value ([11]; dosage 125 g/ha) was 10 and the “Herbicidal activity J” value ([12]; dosage 32 g/ha) was 10. For the same molecule, the “Herbicidal activity J” value ([12]; dosage 125 g/ha) was 10, the “Herbicidal activity LC” value ([13]; dosage 32 g/ha) was 9 and the “Herbicidal activity LC” value ([13]; dosage 125 g/ha) was 10.
`COc1nc(OC)nc(Oc2cc(-n3c(=O)cc(C(F)(F)F)n(C)c3=O)c(F)cc2Cl)n1` [B, reference compound] was tested, and the “Herbicidal activity B” value ([14]; dosage 32 g/ha) was 6, the “Herbicidal activity B” value ([14]; dosage 125 g/ha) was 8 and the “Herbicidal activity GF” value ([15]; dosage 32 g/ha) was 6. For the same molecule, the “Herbicidal activity GF” value ([15]; dosage 125 g/ha) was 8, the “Herbicidal activity LC” value ([16]; dosage 32 g/ha) was 8 and the “Herbicidal activity LC” value ([16]; dosage 125 g/ha) was 8. For the same molecule, the “Herbicidal activity W” value (wild oat (Avena fatua); dosage 32 g/ha) was 6 and the “Herbicidal activity W” value (wild oat (Avena fatua); dosage 125 g/ha) was 9.
